Reference: patent publication US10750743B2, “Pyridazinone herbicides” (E.I. DU PONT DE NEMOURS AND COMPANY, priority 2015, dated 2020)

Key:
Assay type in all cases: in vivo
[1] = system: ragweed (common ragweed, Ambrosia elatior); experiment: Test A postemergence application, visual injury rating; settings: for Ragweed plant response rating: 0 to 100 scale, 0 no effect, 100 complete control
Procedure, shortened: (§1)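 Compounds in a surfactant-containing solvent were applied as a directed soil spray preemergence, or postemergence to plants 2-10 cm tall at the one- to two-leaf stage, in loam-sand blend. After about 10 d in the greenhouse, injury was rated visually against untreated controls on a 0-100 scale (100 = complete control).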

[2] = system: blackgrass (Alopecurus myosuroides); experiment: as above; settings: 0 to 100 scale, 0 no effect, 100 complete control
Procedure, shortened: as §1

[3] = system: ryegrass, It. (Italian ryegrass, Lolium multiflorum); experiment: as above; settings: for Ryegrass, It. plant response rating: 0 to 100 scale, 0 no effect, 100 complete control
Procedure, shortened: as §1

[4] = system: Foxtail, Green; experiment: as above; settings: 0 to 100 scale, 0 no effect, 100 complete control
[5] = system: barnyardgrass (Echinochloa crus-galli); experiment: as above; settings: 0 to 100 scale, 0 no effect, 100 complete control
Procedure, shortened: as §1

[6] = system: wheat (Triticum aestivum); experiment: as above; settings: for Wheat plant response rating: 0 to 100 scale, 0 no effect, 100 complete control
Procedure, shortened: as §1

[7] = system: kochia (Kochia scoparia); experiment: as above; settings: for Kochia plant response rating: 0 to 100 scale, 0 no effect, 100 complete control
Procedure, shortened: as §1

[8] = system: galium (catchweed bedstraw, Galium aparine); experiment: as above; settings: for Galium plant response rating: 0 to 100 scale, 0 no effect, 100 complete control
Procedure, shortened: as §1

[9] = system: corn (Zea mays); experiment: as above; settings: for Corn plant response rating: 0 to 100 scale, 0 no effect, 100 complete control
Procedure, shortened: as §1

[10] = system: pigweed (Amaranthus retroflexus); experiment: as above; settings: for Pigweed plant response rating: 0 to 100 scale, 0 no effect, 100 complete control
Procedure, shortened: as §1

[11] = system: barnyardgrass (Echinochloa crus-galli); experiment: Test B flooded paddy test, visual rating; settings: Flood, 250 g ai/ha, applied to paddy water, rated after 13 to 15 d
Procedure, shortened: (§2)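 Plants grown to the 2-leaf stage. At treatment, pots were flooded to 3 cm above the soil, compound was applied directly to the paddy water, and that depth was held throughout. After 13 to 15 d in the greenhouse, response was rated visually against controls on a 0 (no effect) to 100 (complete control) scale.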

[12] = system: rice (Oryza sativa); experiment: Test B flooded paddy test, visual rating; settings: Flood, 250 g ai/ha, applied to paddy water, rated after 13 to 15 d
Procedure, shortened: as §2

[13] = system: ducksalad (Heteranthera limosa); experiment: Test B flooded paddy test, visual rating; settings: Flood, 250 g ai/ha, applied to paddy water, rated after 13 to 15 d
Procedure, shortened: as §2

[14] = system: sedge, umbrella (small-flower umbrella sedge, Cyperus difformis); experiment: Test B flooded paddy test, visual rating; settings: Flood, 250 g ai/ha, applied to paddy water, rated after 13 to 15 d
Procedure, shortened: as §2

[15] = system: ragweed (common ragweed, Ambrosia elatior); experiment: Test A preemergence, directed soil spray, visual injury rating; settings: 0 is no effect, 100 is complete control
Procedure, shortened: as §1

[16] = system: ryegrass, It. (Italian ryegrass, Lolium multiflorum); experiment: as above; settings: 0 is no effect, 100 is complete control
Procedure, shortened: as §1

[17] = system: Foxtail, Green; experiment: as above; settings: 0 is no effect, 100 is complete control
[18] = system: barnyardgrass (Echinochloa crus-galli); experiment: as above; settings: 0 is no effect, 100 is complete control
Procedure, shortened: as §1

[19] = system: kochia (Kochia scoparia); experiment: as above; settings: 0 is no effect, 100 is complete control
Procedure, shortened: as §1

[20] = system: pigweed (Amaranthus retroflexus); experiment: as above; settings: 0 is no effect, 100 is complete control
Procedure, shortened: as §1

[21] = system: foxtail, giant (giant foxtail, Setaria faberii); experiment: Test A postemergence application, visual injury rating
Procedure, shortened: as §1

[22] = system: foxtail, giant (giant foxtail, Setaria faberii); experiment: Test A preemergence, directed soil spray, visual injury rating; settings: 0 is no effect, 100 is complete control
Procedure, shortened: as §1

[23] = 31 g ai/ha, 0 is no effect, 100 is complete control

Row | SMILES | Ragweed plant response rating ([1]; 125 g ai/ha) | Blackgrass plant response rating ([2]; 125 g ai/ha) | Ryegrass, It. plant response rating ([3]; 125 g ai/ha) | Barnyardgrass plant response rating ([5]; 31 g ai/ha) | Barnyardgrass plant response rating ([5]; 125 g ai/ha) | Wheat plant response rating ([6]; 125 g ai/ha) | Kochia plant response rating ([7]; 125 g ai/ha) | Galium plant response rating ([8]; 125 g ai/ha) | Corn plant response rating ([9]; 125 g ai/ha) | Pigweed plant response rating ([10]; 125 g ai/ha) | Barnyardgrass plant response rating (0 to 100 scale, 0 is no effect, 100 is complete control) [11] | Rice plant response rating (0 to 100 scale, 0 is no effect, 100 is complete control) [12] | Ducksalad plant response rating (0 to 100 scale, 0 is no effect, 100 is complete control) [13] | Sedge, Umbrella plant response rating (0 to 100 scale, 0 is no effect, 100 is complete control) [14] | Plant response rating (0 to 100 scale), Ragweed ([15]; 31 g ai/ha) | Plant response rating (0 to 100 scale), Ragweed ([15]; 125 g ai/ha) | Plant response rating (0 to 100 scale), Ryegrass, It. ([16]; 31 g ai/ha) | Plant response rating (0 to 100 scale), Ryegrass, It. ([16]; 125 g ai/ha) | Plant response rating (0 to 100 scale), Barnyardgrass ([18]; 31 g ai/ha) | Plant response rating (0 to 100 scale), Barnyardgrass ([18]; 125 g ai/ha) | further results
1 | Cn1ncc(O)c(-c2cccc3cnccc23)c1=O [Compound 34] | 0 | 0 | 0 | 0 | 0 | 0 | 0 | 0 | 0 | 0 | 0 | 0 | 0 | 0 | 0 | 0 | 0 | 0 | 0 | 0 | Ragweed plant response rating ([1]; 31 g ai/ha): 0; Blackgrass plant response rating ([2]; 31 g ai/ha): 0; Ryegrass, It. plant response rating ([3]; 31 g ai/ha): 0; Foxtail, Green plant response rating ([4]; 31 g ai/ha): 0; Foxtail, Green plant response rating ([4]; 125 g ai/ha): 0; Wheat plant response rating ([6]; 31 g ai/ha): 0; Kochia plant response rating ([7]; 31 g ai/ha): 0; Galium plant response rating ([8]; 31 g ai/ha): 0; Corn plant response rating ([9]; 31 g ai/ha): 0; Pigweed plant response rating ([10]; 31 g ai/ha): 0; Plant response rating (0 to 100 scale), Foxtail, Green ([17]; 31 g ai/ha): 0; Plant response rating (0 to 100 scale), Foxtail, Green ([17]; 125 g ai/ha): 0; Plant response rating (0 to 100 scale), Kochia ([19]; 31 g ai/ha): 0; Plant response rating (0 to 100 scale), Kochia ([19]; 125 g ai/ha): 0; Plant response rating (0 to 100 scale), Pigweed ([20]; 31 g ai/ha): 0; Plant response rating (0 to 100 scale), Pigweed ([20]; 125 g ai/ha): 0
2 | Cc1nn(C)c(=O)c(-c2ccc(Cl)c3ccsc23)c1OC(=O)c1ccccc1 [Compound 35] | – | – | – | – | – | – | – | – | – | – | – | – | – | – | – | – | – | – | – | – | Ragweed plant response rating ([1]; 1000 g ai/ha): 0; Blackgrass plant response rating ([2]; 1000 g ai/ha): 30; Ryegrass, It. plant response rating ([3]; 1000 g ai/ha): 70; Foxtail, Green plant response rating ([4]; 1000 g ai/ha): 0; Barnyardgrass plant response rating ([5]; 1000 g ai/ha): 20; Wheat plant response rating ([6]; 1000 g ai/ha): 0; Kochia plant response rating ([7]; 1000 g ai/ha): 0; Galium plant response rating ([8]; 1000 g ai/ha): 100; Corn plant response rating ([9]; 1000 g ai/ha): 0; Pigweed plant response rating ([10]; 1000 g ai/ha): 0; Plant response rating (0 to 100 scale), Ragweed ([15]; 1000 g ai/ha): 10; Plant response rating (0 to 100 scale), Ryegrass, It. ([16]; 1000 g ai/ha): 80; Plant response rating (0 to 100 scale), Foxtail, Green ([17]; 1000 g ai/ha): 0; Plant response rating (0 to 100 scale), Barnyardgrass ([18]; 1000 g ai/ha): 20; Plant response rating (0 to 100 scale), Kochia ([19]; 1000 g ai/ha): 0; Plant response rating (0 to 100 scale), Pigweed ([20]; 1000 g ai/ha): 0
3 | CCC(=O)Oc1c(C)nn(C)c(=O)c1-c1c(C(F)(F)F)ccc2cc(C)oc12 [Compound 47] | 80 | 0 | 30 | 0 | 10 | 0 | 70 | 80 | 0 | 90 | 0 | 0 | 0 | 0 | 20 | 80 | 0 | 80 | 0 | 30 | Ragweed plant response rating ([1]; 31 g ai/ha): 40; Ryegrass, It. plant response rating ([3]; 31 g ai/ha): 0; Foxtail, Green plant response rating ([4]; 31 g ai/ha): 0; Foxtail, Green plant response rating ([4]; 125 g ai/ha): 10; Wheat plant response rating ([6]; 31 g ai/ha): 0; Kochia plant response rating ([7]; 31 g ai/ha): 40; Galium plant response rating ([8]; 31 g ai/ha): 70; Corn plant response rating ([9]; 31 g ai/ha): 0; Pigweed plant response rating ([10]; 31 g ai/ha): 90; Plant response rating (0 to 100 scale), Foxtail, Green ([17]; 31 g ai/ha): 0; Plant response rating (0 to 100 scale), Foxtail, Green ([17]; 125 g ai/ha): 0; Plant response rating (0 to 100 scale), Kochia ([19]; 31 g ai/ha): 40; Plant response rating (0 to 100 scale), Kochia ([19]; 125 g ai/ha): 50; Plant response rating (0 to 100 scale), Pigweed ([20]; 31 g ai/ha): 60; Plant response rating (0 to 100 scale), Pigweed ([20]; 125 g ai/ha): 100
4 | CC(=O)Oc1c(C)nn(C)c(=O)c1-c1c(C(F)(F)F)ccc2cc(C)oc12 [Compound 48] | 90 | 0 | 30 | 0 | 10 | 0 | 70 | 80 | 20 | 100 | 0 | 0 | 0 | 0 | 0 | 90 | 10 | 20 | 0 | 20 | Ragweed plant response rating ([1]; 31 g ai/ha): 70; Blackgrass plant response rating ([2]; 31 g ai/ha): 0; Ryegrass, It. plant response rating ([3]; 31 g ai/ha): 0; Foxtail, Green plant response rating ([4]; 31 g ai/ha): 0; Foxtail, Green plant response rating ([4]; 125 g ai/ha): 10; Wheat plant response rating ([6]; 31 g ai/ha): 0; Kochia plant response rating ([7]; 31 g ai/ha): 50; Galium plant response rating ([8]; 31 g ai/ha): 80; Corn plant response rating ([9]; 31 g ai/ha): 0; Pigweed plant response rating ([10]; 31 g ai/ha): 70; Plant response rating (0 to 100 scale), Foxtail, Green ([17]; 31 g ai/ha): 0; Plant response rating (0 to 100 scale), Foxtail, Green ([17]; 125 g ai/ha): 20; Plant response rating (0 to 100 scale), Kochia ([19]; 31 g ai/ha): 10; Plant response rating (0 to 100 scale), Kochia ([19]; 125 g ai/ha): 20; Plant response rating (0 to 100 scale), Pigweed ([20]; 31 g ai/ha): 20; Plant response rating (0 to 100 scale), Pigweed ([20]; 125 g ai/ha): 100
5 | Cc1cc2c(-c3c(O)c(C)nn(C)c3=O)c(C)ccc2s1 [Compound 72] | 90 | 80 | 100 | 30 | 40 | 0 | 90 | 100 | 0 | 90 | 0 | 0 | 0 | 0 | 70 | 90 | 90 | 100 | 0 | 30 | Plant response rating (0 to 100 scale), Ragweed [1, 23]: 70; Blackgrass plant response rating ([2]; 31 g ai/ha): 40; Plant response rating (0 to 100 scale), Ryegrass, It. [3, 23]: 90; Plant response rating (0 to 100 scale), Wheat [6, 23]: 0; Plant response rating (0 to 100 scale), Kochia [7, 23]: 70; Plant response rating (0 to 100 scale), Galium [8, 23]: 90; Plant response rating (0 to 100 scale), Foxtail, Giant [21, 23]: 30; Foxtail, Giant plant response rating ([21]; 125 g ai/ha, 0 to 100 scale, 0 no effect, 100 complete control): 60; Plant response rating (0 to 100 scale), Corn [9, 23]: 0; Plant response rating (0 to 100 scale), Pigweed [10, 23]: 90; Plant response rating (0 to 100 scale), Kochia ([19]; 31 g ai/ha): 0; Plant response rating (0 to 100 scale), Kochia ([19]; 125 g ai/ha): 40; Plant response rating (0 to 100 scale), Foxtail, Giant ([22]; 31 g ai/ha): 0; Plant response rating (0 to 100 scale), Foxtail, Giant ([22]; 125 g ai/ha): 40; Plant response rating (0 to 100 scale), Pigweed ([20]; 31 g ai/ha): 70; Plant response rating (0 to 100 scale), Pigweed ([20]; 125 g ai/ha): 70
